# From patent US12187722B2, “Small molecule inhibitors of TEAD transcription factors” (The General Hospital Corporation, priority 2019, dated 2025)
# Target: TEAD2 (Homo sapiens (Human), UniProt Q15562)
# Assay: In vitro palmitoylation (TEAD2 autopalmitoylation, streptavidin blot)
# Type: biochemical
# Conditions: compound at 10 μM
# How it was run: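 Recombinant GST- or His6-TEAD2 (500 ng) preincubated 15 min with compound, then 30 min with 1 μM alkyne palmitoyl-CoA; click-labelled with biotin-azide (1 h, RT). Streptavidin-HRP blot band intensity quantified after SDS-PAGE; inhibition of autopalmitoylation relative to DMSO control.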
# TEAD2, sequence (Q15562 whole entry): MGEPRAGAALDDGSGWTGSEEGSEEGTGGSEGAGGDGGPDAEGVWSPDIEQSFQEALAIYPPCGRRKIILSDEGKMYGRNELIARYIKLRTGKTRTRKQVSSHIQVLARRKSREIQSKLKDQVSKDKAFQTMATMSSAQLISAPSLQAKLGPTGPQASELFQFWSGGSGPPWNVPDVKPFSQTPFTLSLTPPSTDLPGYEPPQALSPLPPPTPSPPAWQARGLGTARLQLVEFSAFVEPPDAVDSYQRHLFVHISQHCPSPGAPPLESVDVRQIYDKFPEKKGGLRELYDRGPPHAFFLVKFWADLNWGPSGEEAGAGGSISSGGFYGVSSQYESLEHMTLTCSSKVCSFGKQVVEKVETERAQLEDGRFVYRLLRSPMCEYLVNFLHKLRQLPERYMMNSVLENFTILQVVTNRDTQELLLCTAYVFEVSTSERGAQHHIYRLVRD
Structure (SMILES),inhibition at 10 µM (Table 2),inhibition at 10 µM (Table 3),other results
O=C(O)c1ccccc1Nc1cccc(S(=O)(=O)Nc2ccc(C34CC5CC(CC(C5)C3)C4)cc2)c1 [Compound 246],99%,–,–
COc1ccc(Nc2ccc(N(C)c3ccccc3OC)cc2)c(C(=O)O)c1 [CP-545],–,6%,–
COc1ccc(Nc2ccc(N(C)c3ccc(C(F)(F)F)cc3)cc2F)c(C(=O)O)c1 [CP-572],–,72%,–
COc1ccc(Nc2cccc(C(=O)Nc3ccc(C4CCCCC4)cc3Cl)c2)c(C(=O)O)c1 [CP-669],–,75%,–
CCCCN(c1ccccc1)c1ccc(NC(=O)c2cccc(Nc3ncccc3C(=O)O)c2)cc1 [Compound 266],81%,–,–
COc1ccc(Nc2ccc(Nc3ccc(C45CC6CC(CC(C6)C4)C5)cc3Cl)cc2)nc1C(=O)O [CP-650],–,93%,–
O=C(Nc1ccc(C2CCCCC2)cc1Cl)c1cccc(Nc2ccccc2C(=O)O)c1 [CP-666],–,79%,–
Cc1ccc(Nc2cc(Nc3ccc(C45CC6CC(CC(C6)C4)C5)cc3)cc(C(F)(F)F)c2)c(C(=O)O)c1 [Compound 28],10%,–,–
CN(C)CCOc1ccc(Nc2ccc(N(C)c3ccc(C45CC6CC(CC(C6)C4)C5)cc3)cc2)c(C(=O)O)c1 [CP-526],–,23%,–
COc1ccc(Nc2ccc(N(C)c3cc(C(F)(F)F)nn3C)cc2)c(C(=O)O)c1 [CP-624],–,15%,–
O=C(O)/C=C/c1ccccc1Nc1ccc(Nc2ccc(C34CC5CC(CC(C5)C3)C4)cc2)cc1 [Compound 245],87%,–,–
COc1ccc(Nc2ccc(N(C)c3ccc(C4CCCCC4)cc3)cc2C)c(C(F)(F)F)c1 [CP-629],–,24%,–
O=C(O)c1cccnc1N1CCN(Cc2ccc(C34CC5CC(CC(C5)C3)C4)cc2Cl)CC1 [Compound 106],0%,–,–
O=C(O)C1=C(C(=O)Nc2ccc(C34CC5CC(CC(C5)C3)C4)cc2)CCC1 [compound 289],88%,–,–
O=C(CCc1ccc(Nc2ccccc2C(=O)O)cc1)Nc1ccc(C23CC4CC(CC(C4)C2)C3)cc1 [Compound 220],10%,–,–
Cc1cc(C(=O)Nc2cccc(C(=O)O)c2)ccc1Nc1ccc(C2CCCCC2)cc1 [CP-651],–,85%,–
COc1ccc(Nc2ccc(N(C)c3ccc(C(F)(F)F)cc3)cc2)c(C(=O)N(C)C)c1 [compound 431],37%,–,–
CN(c1ccc(Nc2cccc(C(=O)O)n2)cc1)c1ccc(C(F)(F)F)cc1 [CP-648],–,89%,–
O=C(O)c1cccnc1Nc1ccc(S(=O)(=O)Nc2ccc(C34CC5CC(CC(C5)C3)C4)cc2)cc1 [Compound 188],101%,–,–
Cc1cc(N(C)c2ccc(C3CCCCC3)cc2)ncc1Nc1cccc(C(=O)O)n1 [CP-652],–,37%,–
O=C(O)c1ccccc1C(=O)Nc1ccc(Nc2ccc(C34CC5CC(CC(C5)C3)C4)cc2Cl)cc1 [compound 279],98%,–,–
COc1cccc2c1S(=O)(=O)N=C2Nc1ccc(C23CC4CC(CC(C4)C2)C3)cc1 [Compound 19],35%,–,–
CN(c1cccc(C(=O)Nc2ccc(C34CC5CC(CC(C5)C3)C4)cc2)c1)c1ccccc1C(=O)O [Compound 230],0%,–,–
CC12CC3CC(C)(C1)CC(c1ccc(NC(=O)c4ccc(Nc5ccccc5C(=O)O)cc4)cc1)(C3)C2 [Compound 216],89%,–,–

Structure (SMILES),inhibition at 10 µM (Table 2),inhibition at 10 µM (Table 3),other results
O=C(O)c1cccc(NC(=O)c2ccc(Nc3ccc(C4CCCCC4)cc3)cc2)c1 [CP-638],–,67%,–
O=C(Nc1ccc(Nc2ccccc2C(=O)O)cc1)c1ccc(C23CC4CC(CC(C4)C2)C3)cc1 [Compound 157],80%,–,–
O=C(O)c1cccnc1Nc1ccc(Nc2ccc(C34CC5CC(CC(C5)C3)C4)cc2Cl)cc1 [Compound 59],99%,–,–
O=C(O)c1ccccc1Nc1cnc(Nc2ccc(C34CC5CC(CC(C5)C3)C4)cc2Cl)cn1 [compound 283],99%,–,–
C=CC(=O)c1ccccc1Nc1ccc(Nc2ccc(C34CC5CC(CC(C5)C3)C4)cc2)cc1,–,–,inhibition at 10 µM: 5%
COCCC(=O)Nc1ccc(C(=O)OC)c(Nc2ccc(N(C)c3ccc(C45CC6CC(CC(C6)C4)C5)cc3)cc2)c1 [CP-472],–,1%,–
CC(C)(C)OC(=O)N(c1ccc(Nc2ccc(C34CC5CC(CC(C5)C3)C4)cc2Cl)cn1)c1ccccc1C(=O)O [Compound 76],34%,–,–
CN(c1ccc(CC(=O)Nc2ccccc2C(=O)O)cc1)c1ccc(C23CC4CC(CC(C4)C2)C3)cc1 [Compound 243],67%,–,–
O=C(NCc1ccc(C23CC4CC(CC(C4)C2)C3)cc1)c1ccc(Nc2ccccc2C(=O)O)cc1 [Compound 267],36%,–,–
Cc1cc(N(C)c2ccc(OC(F)(F)F)cc2)ccc1Nc1cccc(C(=O)O)n1 [CP-647],–,87%,–
O=C(O)c1cccc(Nc2ccc(Oc3ccc(C45CC6CC(CC(C6)C4)C5)cc3Cl)cc2)n1 [Compound 203],95%,–,–
CC1(C)OC(C(=O)O)C(C(=O)Nc2ccc(Nc3ccc(C45CC6CC(CC(C6)C4)C5)cc3Cl)cc2)O1 (centres unmarked) [Compound 102],77%,–,–
O=C(Nc1ccc(C23CC4CC(CC(C4)C2)C3)cc1Cl)c1ccc2nc[nH]c2c1,–,–,inhibition at 10 µM: 20%
O=C(O)c1ccccc1Nc1cnc(Oc2ccc(C34CC5CC(CC(C5)C3)C4)cc2Cl)cn1 [CP-540],–,75%,–
COc1ccc(Nc2cnc(N(C)c3ccc(C(F)(F)F)cc3)nc2)c(C(=O)O)c1 [CP-602],–,5%,–
O=C(Nc1ccc(Nc2ccccc2C(=O)O)cc1)Nc1ccc(C23CC4CC(CC(C4)C2)C3)cc1 [Compound 189],34%,–,–
Clc1cc(C23CC4CC(CC(C4)C2)C3)ccc1Nc1ccc(Cn2cncn2)cc1 [Compound 9],76%,–,–
Cc1cc(N(C)c2ccc(C3CCCCC3)cc2)ccc1Nc1ccc(C(=O)N2CC(C(N)=O)C2)cc1C(=O)O [CP-679],–,81%,–
Cc1cc(N(C)c2ccc(C3CCCCC3)cc2)ccc1Nc1ccc(N2CCOCC2)cc1C(=O)O [CP-621],–,47%,–
CN(c1ccc(Nc2ccccc2C(=O)O)cc1)c1ccc(C23CC4CC(CC(C4)C2)C3)cc1 [Compound 172],100%,–,–
O=C(O)c1cccnc1Nc1cc(Nc2ccc(C34CC5CC(CC(C5)C3)C4)cc2)cc(C(F)(F)F)c1 [Compound 27],90%,–,–
O=C(CN1CCC[C@H]1C(=O)O)Nc1ccc(C23CC4CC(CC(C4)C2)C3)cc1,–,–,inhibition at 10 µM: 8%
O=C(O)c1ccccc1Nc1ccc(S(=O)(=O)Nc2ccc(C34CC5CC(CC(C5)C3)C4)cc2)cc1 [Compound 190],85%,–,–
Cc1cc(Nc2ccc(C3CCCCC3)cc2)ccc1C(=O)Nc1cccc(C(=O)O)c1 [CP-649],–,99%,–

Structure (SMILES),inhibition at 10 µM (Table 2),inhibition at 10 µM (Table 3),other results
COc1ccc(Nc2ccc(N(C)c3ccc(C45CC6CC(CC(C6)C4)C5)cc3)cc2)c(CO)c1 [CP-516],–,20%,–
Cc1cc(N(C)c2ccc(C3CCCCC3)cc2)ccc1Nc1ccc(CN(C)C)cc1C(=O)O [CP-640],–,20%,–
CN(c1ccc(Nc2ncccc2C(=O)O)cc1)c1ccc(C23CC4CC(CC(C4)C2)C3)cc1Cl [Compound 142],65%,–,–
CN(c1ccc(Nc2ccc(NS(C)(=O)=O)cc2C(=O)O)cc1)c1ccc(C(F)(F)F)cc1 [CP-613],–,83%,–
CN(c1ccc(C23CC4CC(CC(C4)C2)C3)cc1)c1ccc(N(C)c2ncccc2C(=O)O)cc1C(F)(F)F [Compound 156],92%,–,–
O=C(Nc1ccccc1C(=O)O)c1cccc(Nc2ccc(C34CC5CC(CC(C5)C3)C4)cc2)c1 [Compound 239],98%,–,% of inhibition of TEAD2 palmitoylation at 10 μM (Table 2): 100%
COc1ccc(Nc2cnc(Oc3ccc(C4CCCCC4)cc3Cl)cc2C)c(C(=O)O)c1 [CP-599],–,57%,–
O=C(O)c1ccncc1Nc1ccc(Nc2ccc(C34CC5CC(CC(C5)C3)C4)cc2Cl)cc1 [Compound 83],65%,–,–
CC(C)c1ccccc1-c1ccc(NC(=O)C2CN(CC(=O)O)C2)cc1 [Compound 87],4%,–,–
CCCCN(c1ccccc1)c1ccc(N(C)c2ccc(N(C)c3ccccc3C(=O)O)cc2)cc1 [Compound 187],57%,–,–
O=C(N[C@H]1CCC[C@H]1C(=O)O)c1ccc(Nc2ccc(C34CC5CC(CC(C5)C3)C4)cc2Cl)cc1 [Compound 77],52%,–,–
COc1ccc(Nc2cnc(N(C)c3ccc(C4CCCCC4)cc3)nc2)c(C(=O)O)c1 [CP-594],–,46%,–
O=C(Nc1ccc(Nc2ccc(C34CC5CC(CC(C5)C3)C4)cc2Cl)cc1)[C@H]1CCC[C@H]1C(=O)O (stereo in doubt) [compound 288],53%,–,–
O=C(O)c1ncccc1Nc1ccc(Nc2ccc(C34CC5CC(CC(C5)C3)C4)cc2Cl)cc1 [Compound 82],67%,–,–
COc1ccc(Nc2cc(Nc3ccc(C4CCCCC4)cc3Cl)cc(C(F)(F)F)c2)nc1C(=O)O [CP-675],–,83%,–
CCOC(=O)c1cccc(Nc2ccc(C(=O)Nc3ccc(C45CC6CC(CC(C6)C4)C5)cc3)cc2)n1 [Compound 16],0%,–,–
O=C(O)c1cc(Nc2ccc(Nc3ccc(C45CC6CC(CC(C6)C4)C5)cc3Cl)cc2)ccn1 [Compound 117],9%,–,–
O=C(O)c1cccnc1Nc1ccc(C23CC4CC(CC(C4)C2)C3)cc1Br [Compound 92],90%,–,–
O=C(Nc1ccc(C23CC4CC(CC(C4)C2)C3)cc1)c1ccc(Nc2cccc(C(=O)O)n2)cc1 [Compound 148],56%,–,% of inhibition of TEAD2 palmitoylation at 10 μM (Table 2): 69%
c1ccc2c(c1)ccn2-c1ccc(Nc2ccc(C34CC5CC(CC(C5)C3)C4)cc2)cc1 [Compound 244],8%,–,–
CN(c1ccc(Oc2ccc(C34CC5CC(CC(C5)C3)C4)cc2)cc1)c1ccccc1C(=O)O [Compound 155],99%,–,–
O=C(O)c1ccccc1NS(=O)(=O)c1ccc(Nc2ccc(C34CC5CC(CC(C5)C3)C4)cc2Cl)cc1 [Compound 223],100%,–,–
O=C(Nc1ncccc1C(=O)O)c1ccc(Nc2ccc(C34CC5CC(CC(C5)C3)C4)cc2)cc1 [Compound 217],55%,–,–
COc1ccc(Nc2ccc(N(C)c3ccc(C(F)(F)F)cc3)cc2)c(C#N)c1 [CP-608],–,43%,–
